# Source: patent US20250042905A1, “DIHYDROPYRROLO[3,4-C]PYRAZOLE DERIVATIVES AND THEIR USE IN DIAGNOSIS” (AC IMMUNE SA, priority 2021, published 2025)
# Like-named read-outs stand apart in the source and are kept apart here.
# Molecular target: T1, PD brain-derived alpha-synuclein aggregates (Homo sapiens, UniProt P37840)
# T1 construct: PD brain-derived alpha-synuclein aggregates were spotted onto microarray slides; from tissue; host or cells: human Parkinson's disease patient brain
# Assay: Micro-radiobinding competition assay for the determination of binding affinity
# Conditions: for inhibition at 0.1 µM: read-out: Competition at 100 nM (%); for inhibition at 1 µM: read-out: Competition at 1 μM (%); for Ki: concentration range 0.05 nM to 2 μM, nonlinear regression, one site specific binding model
# Description: Micro-Radiobinding Competition Assay for the Determination of Binding Affinity
# PD brain-derived alpha-synuclein aggregates were spotted onto microarray slides. The slides were incubated with tritiated reference alpha-synuclein ligand at 20 nM or 30 nM and the example compounds (non-radiolabelled) at 1 μM and 100 nM. In some cases, the non-radiolabelled example compounds were further assessed for a range of different concentrations, varying from 0.05 nM to 2 μM. After incubation, slides were washed and scanned by a real-time autoradiography system (BeaQuant, ai4R). Quantification of the signal was performed by using the Beamage image analysis software (ai4R). Non-specific signal was determined with an excess of non-radiolabelled reference alpha-synuclein ligand (2 μM) and specific binding was calculated by subtracting the non-specific signal from the total signal. Competition was calculated as percent, where 0% was defined as the specific binding in the presence of vehicle and 100% as the values obtained in the presence of excess of the non-radiolabelled reference alpha-synuclein ligand. Ki values were calculated in GraphPad Prism7 by applying a nonlinear regression curve fit using a one site, specific binding model. All measurements were performed with at least two technical replicates.
# Table 4: Assessment of binding affinity by micro-radiobinding competition assay on human PD brain-derived alpha-synuclein aggregates.
# [1] = non-radiolabelled example compound at 100 nM, competition with tritiated reference alpha-synuclein ligand (20 nM or 30 nM), 100% = excess non-radiolabelled reference ligand
# [2] = non-radiolabelled example compound at 1 μM, competition with tritiated reference alpha-synuclein ligand (20 nM or 30 nM), 100% = excess non-radiolabelled reference ligand
SMILES,inhibition at 0.1 µM [1],inhibition at 1 µM [2],inhibition at 0.1 µM,inhibition at 1 µM,Ki
"O=C1c2cn(-c3cnc(N4CC[C@@H](F)C4)cn3)nc2CN1c1cccnc1 [Example 1, (R)-2-(5-(3-fluoropyrrolidin-1-yl)pyrazin-2-yl)-5-(pyridin-3-yl)-5,6-dihydropyrrolo[3,4-c]pyrazol-4(2H)-one]",89%,95%,–,–,–
"O=C1c2cn(-c3cnc(N4CC[C@H](F)C4)cn3)nc2CN1c1cccnc1 [Example 2, (S)-2-(5-(3-fluoropyrrolidin-1-yl)pyrazin-2-yl)-5-(pyridin-3-yl)-5,6-dihydropyrrolo[3,4-c]pyrazol-4(2H)-one]",–,–,74%,98%,–
"O=C1c2cn(-c3cnc(N4CCCCC(F)C4)cn3)nc2CN1c1cccnc1 (stereo not drawn) [Example 5, 2-(5-(3-fluoroazepan-1-yl)pyrazin-2-yl)-5-(pyridin-3-yl)-5,6-dihydropyrrolo[3,4-c]pyrazol-4(2H)-one]",39%,68%,–,–,–
"COc1cncc(N2Cc3nn(-c4cnc(N5CC[C@@H](F)C5)cn4)cc3C2=O)c1 [Example 7, (R)-2-(5-(3-fluoropyrrolidin-1-yl)pyrazin-2-yl)-5-(5-methoxypyridin-3-yl)-5,6-dihydropyrrolo[3,4-c]pyrazol-4(2H)-one]",–,–,48%,69%,–
"Cn1cc(N2Cc3nn(-c4cnc(N5CCCCC(F)C5)cn4)cc3C2=O)cn1 (stereo not drawn) [Example 8, 2-(5-(3-fluoroazepan-1-yl)pyrazin-2-yl)-5-(1-methyl-1H-pyrazol-4-yl)-5,6-dihydropyrrolo[3,4-c]pyrazol-4(2H)-one]",45%,78%,–,–,33 nM
"O=C1c2cn(-c3cnc(N4CC[C@@H](F)C4)cn3)nc2CN1c1cncs1 [Example 9, (R)-2-(5-(3-fluoropyrrolidin-1-yl)pyrazin-2-yl)-5-(thiazol-5-yl)-5,6-dihydropyrrolo[3,4-c]pyrazol-4(2H)-one]",–,–,106%,–,10 nM
"COc1cncc(N2Cc3nn(-c4cnc(N5CC[C@H](F)C5)cn4)cc3C2=O)c1 [Example 10, (S)-2-(5-(3-fluoropyrrolidin-1-yl)pyrazin-2-yl)-5-(5-methoxypyridin-3-yl)-5,6-dihydropyrrolo[3,4-c]pyrazol-4(2H)-one]",–,–,59%,82%,–
"COc1cncc(N2Cc3nn(-c4cnc(N5CC(F)C5)cn4)cc3C2=O)c1 [Example 11, 2-(5-(3-fluoroazetidin-1-yl)pyrazin-2-yl)-5-(5-methoxypyridin-3-yl)-5,6-dihydropyrrolo[3,4-c]pyrazol-4(2H)-one]",–,–,41%,69%,–
"O=C1c2cn(-c3cnc(N4CC[C@H](F)C4)cn3)nc2CN1c1cncs1 [Example 12, (S)-2-(5-(3-fluoropyrrolidin-1-yl)pyrazin-2-yl)-5-(thiazol-5-yl)-5,6-dihydropyrrolo[3,4-c]pyrazol-4(2H)-one]",–,–,50%,–,–
"O=C1c2cn(-c3cnc(N4CCCC(F)CC4)cn3)nc2CN1c1cccnc1 (stereo not drawn) [Example 15, 2-(5-(4-fluoroazepan-1-yl)pyrazin-2-yl)-5-(pyridin-3-yl)-5,6-dihydropyrrolo[3,4-c]pyrazol-4(2H)-one]",39%,67%,–,–,–
"Cc1ccc(N2Cc3nn(-c4cnc(N5CC[C@@H](F)C5)cn4)cc3C2=O)cn1 [Example 17, (R)-2-(5-(3-fluoropyrrolidin-1-yl)pyrazin-2-yl)-5-(6-methylpyridin-3-yl)-5,6-dihydropyrrolo[3,4-c]pyrazol-4(2H)-one]",46%,91%,–,–,–
"Cc1ccc(N2Cc3nn(-c4cnc(N5CC[C@H](F)C5)cn4)cc3C2=O)cn1 [Example 18, (S)-2-(5-(3-fluoropyrrolidin-1-yl)pyrazin-2-yl)-5-(6-methylpyridin-3-yl)-5,6-dihydropyrrolo[3,4-c]pyrazol-4(2H)-one]",38%,82%,–,–,–
"Cc1ccc(N2Cc3nn(-c4cnc(N5CC(F)C5)cn4)cc3C2=O)cn1 [Example 19, 2-(5-(3-fluoroazetidin-1-yl)pyrazin-2-yl)-5-(6-methylpyridin-3-yl)-5,6-dihydropyrrolo[3,4-c]pyrazol-4(2H)-one]",44%,74%,–,–,–
"O=C1c2cn(-c3ccc(N4CC[C@@H](F)C4)nn3)nc2CN1c1cccnc1 [Example 20, (R)-2-(6-(3-fluoropyrrolidin-1-yl)pyridazin-3-yl)-5-(pyridin-3-yl)-5,6-dihydropyrrolo[3,4-c]pyrazol-4(2H)-one]",38%,74%,–,–,422 nM
"Cn1cc(N2Cc3nn(-c4ccc(N5CC[C@@H](F)C5)nn4)cc3C2=O)cn1 [Example 21, (R)-2-(6-(3-fluoropyrrolidin-1-yl)pyridazin-3-yl)-5-(1-methyl-1H-pyrazol-4-yl)-5,6-dihydropyrrolo[3,4-c]pyrazol-4(2H)-one]",65%,86%,–,–,–
"O=C1c2cn(-c3ccc(N4CC[C@@H](F)C4)nn3)nc2CN1c1cncs1 [Example 22, (R)-2-(6-(3-fluoropyrrolidin-1-yl)pyridazin-3-yl)-5-(thiazol-5-yl)-5,6-dihydropyrrolo[3,4-c]pyrazol-4(2H)-one]",30%,–,–,–,–
"COc1cncc(N2Cc3nn(-c4ccc(N5CC[C@@H](F)C5)nn4)cc3C2=O)c1 [Example 23, (R)-2-(6-(3-fluoropyrrolidin-1-yl)pyridazin-3-yl)-5-(5-methoxypyridin-3-yl)-5,6-dihydropyrrolo[3,4-c]pyrazol-4(2H)-one]",65%,76%,–,–,182 nM
"O=C1c2cn(-c3ccc(N4CC[C@H](F)C4)nn3)nc2CN1c1cccnc1 [Example 24, (S)-2-(6-(3-fluoropyrrolidin-1-yl)pyridazin-3-yl)-5-(pyridin-3-yl)-5,6-dihydropyrrolo[3,4-c]pyrazol-4(2H)-one]",30%,77%,–,–,236 nM
"O=C1c2cn(-c3ccc(N4CC[C@H](F)C4)nn3)nc2CN1c1cncs1 [Example 25, (S)-2-(6-(3-fluoropyrrolidin-1-yl)pyridazin-3-yl)-5-(thiazol-5-yl)-5,6-dihydropyrrolo[3,4-c]pyrazol-4(2H)-one]",17%,73%,–,–,222 nM
"Cn1cc(N2Cc3nn(-c4ccc(N5CC[C@H](F)C5)nn4)cc3C2=O)cn1 [Example 26, (S)-2-(6-(3-fluoropyrrolidin-1-yl)pyridazin-3-yl)-5-(1-methyl-1H-pyrazol-4-yl)-5,6-dihydropyrrolo[3,4-c]pyrazol-4(2H)-one]",8%,76%,–,–,–
"COc1cncc(N2Cc3nn(-c4ccc(N5CC[C@H](F)C5)nn4)cc3C2=O)c1 [Example 27, (S)-2-(6-(3-fluoropyrrolidin-1-yl)pyridazin-3-yl)-5-(5-methoxypyridin-3-yl)-5,6-dihydropyrrolo[3,4-c]pyrazol-4(2H)-one]",50%,57%,–,–,–
"O=C1c2cn(-c3ccc(N4CCCC(F)CC4)nn3)nc2CN1c1cccnc1 (stereo not drawn) [Example 28, 2-(6-(4-fluoroazepan-1-yl)pyridazin-3-yl)-5-(pyridin-3-yl)-5,6-dihydropyrrolo[3,4-c]pyrazol-4(2H)-one]",17%,51%,–,–,–
"Cc1ccc(N2Cc3nn(-c4ccc(N5CC[C@@H](F)C5)nn4)cc3C2=O)cn1 [Example 29, (R)-2-(6-(3-fluoropyrrolidin-1-yl)pyridazin-3-yl)-5-(6-methylpyridin-3-yl)-5,6-dihydropyrrolo[3,4-c]pyrazol-4(2H)-one]",15%,42%,–,–,–
"Cc1ccc(N2Cc3nn(-c4ccc(N5CC[C@H](F)C5)nn4)cc3C2=O)cn1 [Example 30, (S)-2-(6-(3-fluoropyrrolidin-1-yl)pyridazin-3-yl)-5-(6-methylpyridin-3-yl)-5,6-dihydropyrrolo[3,4-c]pyrazol-4(2H)-one]",4%,39%,–,–,–
"O=C1c2cn(-c3ccc(N4CC[C@@H](F)C4)nn3)nc2CN1c1ccns1 [Example 31, (R)-2-(6-(3-fluoropyrrolidin-1-yl)pyridazin-3-yl)-5-(isothiazol-5-yl)-5,6-dihydropyrrolo[3,4-c]pyrazol-4(2H)-one]",71%,86%,–,–,–
"O=C1c2cn(-c3ccc(N4CC[C@H](F)C4)nn3)nc2CN1c1ccns1 [Example 32, (S)-2-(6-(3-fluoropyrrolidin-1-yl)pyridazin-3-yl)-5-(isothiazol-5-yl)-5,6-dihydropyrrolo[3,4-c]pyrazol-4(2H)-one]",61%,77%,–,–,–
"O=C1c2cn(-c3ccc(N4CCCCC(F)C4)nn3)nc2CN1c1cccnc1 (stereo not drawn) [Example 33, 2-(6-(3-fluoroazepan-1-yl)pyridazin-3-yl)-5-(pyridin-3-yl)-5,6-dihydropyrrolo[3,4-c]pyrazol-4(2H)-one]",6%,35%,–,–,–
